One may read the EC50 as the concentration at which the effect is half-maximal.

The target in the assay is T1, STING (Homo sapiens, UniProt Q86WV6, G230A/H232R/R293Q/R71H).
T1 construct: host or cells: THP1-Dual KO-IFNAR2 cells
T1 sequence (Q86WV6 whole entry R71H/G230A/H232R/R293Q): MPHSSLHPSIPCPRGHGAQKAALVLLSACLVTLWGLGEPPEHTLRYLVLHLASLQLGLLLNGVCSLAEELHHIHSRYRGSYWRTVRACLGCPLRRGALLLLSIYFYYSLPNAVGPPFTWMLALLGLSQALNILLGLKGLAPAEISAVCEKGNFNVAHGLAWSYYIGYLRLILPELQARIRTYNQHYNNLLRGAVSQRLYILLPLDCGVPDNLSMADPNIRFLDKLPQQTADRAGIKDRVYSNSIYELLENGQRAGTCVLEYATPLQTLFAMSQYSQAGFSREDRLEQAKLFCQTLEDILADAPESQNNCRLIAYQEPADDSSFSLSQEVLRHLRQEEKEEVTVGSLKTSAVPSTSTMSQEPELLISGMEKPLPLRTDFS
The assay can be described thus: STING reporter assay: luciferase reporter activity in THP1-Dual KO-IFNAR2 cells stimulated with 2'3'cGAMP. It is filed as cell-based. To be noted: 2′3′cGAMP 15 μM final, 24h, read-out: hSTING: EC50. In outline: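 THP1-Dual KO-IFNAR2 cells (2×10E6 cells/mL) incubated with compounds at 0.0017-100 μM final plus Lipofectamine-transfected 2′3′cGAMP (15 μM final), 24 h at 37 °C, 5% CO2. Luciferase in supernatant read by QUANTI-Luc luminescence; EC50 derived.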
On the technique in general: Reporter assays use an easily measured gene product as a stand-in for the process of interest.
Turning to `O=C(NCC(C(F)F)C1CCCCC1)C(=O)Nc1c[nH]c2cc(F)c(F)cc12` (stereo not drawn) [Compound 142], the half-maximal effective concentration (EC50) is 200 to 1000 nM.
For `COc1ncc(NC(=O)C(=O)Nc2c[nH]c3cc(F)c(F)cc23)cc1C(F)(F)F` [Compound 287, N-(5,6-difluoro-1H-indol-3-yl)-N′-[6-methoxy-5-(trifluoromethyl)pyridin-3-yl]ethanediamide], the EC50 is 1000 to 5000 nM.
For the compound `Cc1cc(NC(=O)C(=O)Nc2c[nH]c3ccccc23)cc(C(F)(F)F)c1` [Compound 183], the concentration giving a half-maximal response (EC50) fell in the range of 200 to 1000 nM.
Regarding `O=C(NCc1cncc(C(F)(F)F)c1)C(=O)Nc1c[nH]c2cc(F)c(F)cc12` [Compound 343], the EC50 was in the range of 200 to 1000 nM.
Turning to `O=C(Nc1ccc(C(F)(F)F)cc1)C(=O)Nc1c[nH]c2cc(F)ccc12` [Compound 172], the EC50 lay in the range of 200 to 1000 nM.
With `O=C(Nc1c[nH]c2ccc(Cl)cc12)C(=O)N[C@H]1C[C@H](Nc2ccccn2)C1` [Compound 208], the EC50 was 1000 to 5000 nM.
On to `O=C(NCC(=O)N1CCc2cccnc21)C(=O)Nc1c[nH]c2cc(F)c(F)cc12` [Compound 203], for which the EC50 lay within 200 to 1000 nM.
Turning to `O=C(NCC1(c2ccccc2)CC1)C(=O)Nc1c[nH]c2cc(F)c(F)cc12` [Compound 146, N1-(5,6-difluoro-1H-indol-3-yl)-N2-((1-phenylcyclopropyl)methyl)oxalamide], the EC50 lay within 200 to 1000 nM.
In the case of `Cc1ccc(CNC(=O)C(=O)Nc2c[nH]c3cc(F)c(F)cc23)cc1C(F)(F)F` [Compound 107] it was 40 to 200 nM; in that of `Cc1ccc(Cl)cc1NC(=O)C(=O)Nc1c[nH]c2cc(F)c(F)cc12` [Compound 130, N1-(5-chloro-2-methylphenyl)-N2-(5,6-difluoro-1H-indol-3-yl)oxalamide], 200 to 1000 nM.
For `O=C(NCC1CC2C=CC1C2)C(=O)Nc1c[nH]c2cc(F)c(F)cc12` (stereo not drawn) [Compound 111], the EC50 is 200 to 1000 nM.
For `COCC(NC(=O)C(=O)Nc1c[nH]c2cc(F)c(F)cc12)c1ccccc1` (stereo not drawn) [Compound 310, N-(5,6-difluoro-1H-indol-3-yl)-N′-(2-methoxy-1-phenylethyl) ethanediamide] the value was 1000 to 5000 nM; for `O=C(NCc1cccc(N2CCCCC2)c1)C(=O)Nc1c[nH]c2cc(F)c(F)cc12` [Compound 162, N1-(5,6-difluoro-1H-indol-3-yl)-N2-(3-(piperidin-1-yl)benzyl) oxalamide], 200 to 1000 nM.
Regarding `O=C(Nc1c[nH]c2ccc(Cl)cc12)C(=O)N[C@H]1C[C@H](Oc2ccccn2)C1` [Compound 212], the EC50 is 200 to 1000 nM.
On to `O=C(NCC(c1ccccc1)n1ccnc1)C(=O)Nc1c[nH]c2cc(F)c(F)cc12` (stereo not drawn) [Compound 277, N-(5,6-difluoro-1H-indol-3-yl)-N′-[2-(1H-imidazol-1-yl)-2-phenylethyl] ethanediamide], for which the EC50 was 5000 to 100000 nM.
In the case of `O=C(Nc1c[nH]c2cc(F)c(F)cc12)C(=O)N[C@H]1CC[C@@H](OCC(F)F)CC1` [Compound 187], the EC50 lay in the range of 1000 to 5000 nM.
With `O=C(Nc1c[nH]c2cc(F)c(F)cc12)C(=O)NC1CCC(Oc2ccc(C(F)(F)F)cn2)C1` (stereo not drawn) [Compound 221], the EC50 lay in the range of 200 to 1000 nM.
For the compound `O=C(NCCOC1CCCC1)C(=O)Nc1c[nH]c2cc(F)c(F)cc12` [Compound 305, N'-[2-(cyclopentyloxy)ethyl]-N-(5,6-difluoro-1H-indol-3-yl)ethanediamide], the EC50 was 200 to 1000 nM.
For the compound `O=C(NCC1(c2cccc(Cl)c2)CCOCC1)C(=O)Nc1c[nH]c2cc(F)c(F)cc12` [Compound 140], the EC50 was 1000 to 5000 nM.
`COc1ccc(Oc2ccc(NC(=O)C(=O)Nc3c[nH]c4cc(F)c(F)cc34)cc2C)cn1` [Compound 272, N-(5,6-difluoro-1H-indol-3-yl)-N′-{4-[(6-methoxypyridin-3-yl)oxy]-3-methylphenyl} ethanediamide]: the EC50 is 200 to 1000 nM.
For `O=C(NCc1ccc(C(F)(F)F)c(Cl)c1)C(=O)Nc1c[nH]c2ccccc12` [Compound 171] the value was 200 to 1000 nM; for `CC(C)(CO)CCCN1CCN(C(=O)C(=O)Nc2c[nH]c3cc(F)c(F)cc23)CC1` [Compound 206], 5000 to 100000 nM; for `O=C(Nc1ccc2c(c1)OC(F)(F)O2)C(=O)Nc1c[nH]c2cc(F)c(F)cc12` [Compound 292, N-(5,6-difluoro-1H-indol-3-yl)-N′-(2,2-difluoro-2H-1,3-benzodioxol-5-yl)ethanediamide], 200 to 1000 nM.
For `O=C(Nc1c[nH]c2cc(F)c(F)cc12)C(=O)NC1CCC(Oc2ccc(C(F)(F)F)cc2)CC1` (stereo not drawn) [Compound 315], the EC50 was 40 to 200 nM.
Take `O=C(Nc1cnc2sccc2c1)C(=O)Nc1c[nH]c2cc(F)c(F)cc12` [Compound 296, N′-(5,6-difluoro-1H-indol-3-yl)-N-{thieno[2,3-b]pyridin-5-yl}ethanediamide]: the EC50 lay within 200 to 1000 nM.
In the case of `O=C(NCc1ccnc(N2CCCCC2)c1)C(=O)Nc1c[nH]c2cc(F)c(F)cc12` [Compound 324] it was 200 to 1000 nM; in that of `Cc1c(CNC(=O)C(=O)Nc2c[nH]c3cc(F)c(F)cc23)cccc1C(F)(F)F` [Compound 132, N1-(5,6-difluoro-1H-indol-3-yl)-N2-(2-methyl-3-(trifluoromethyl)benzyl)oxalamide], 200 to 1000 nM; in that of `O=C(Nc1ccc2c(c1)CCCC2=O)C(=O)Nc1c[nH]c2cc(F)c(F)cc12` [Compound 268, N-(5,6-difluoro-1H-indol-3-yl)-N′-(5-oxo-5,6,7,8-tetrahydro-naphthalen-2-yl)ethanediamide], 200 to 1000 nM.
For `N#Cc1cc(NC(=O)C(=O)Nc2c[nH]c3cc(F)c(F)cc23)cnc1N1CCCC1` [Compound 231], the EC50 lay within 200 to 1000 nM.
Regarding `CCC(NC(=O)C(=O)Nc1c[nH]c2cc(F)c(F)cc12)c1cccc(C(F)(F)F)c1` (single isomer, unassigned) [Compound 235], the EC50 is 200 to 1000 nM.
On to `CC(COc1ccc(C(F)(F)F)cc1)NC(=O)C(=O)Nc1c[nH]c2cc(F)c(F)cc12` (stereo not drawn) [Compound 276, N-(5,6-difluoro-1H-indol-3-yl)-N′-{1-[4-(trifluoromethyl)phenoxy]propan-2-yl}ethanediamide], for which the EC50 fell in the range of 200 to 1000 nM.
Turning to `O=C(NCCOc1ccc(C(F)(F)F)cc1)C(=O)Nc1c[nH]c2cc(F)c(F)cc12` [Compound 149, N1-(5,6-difluoro-1H-indol-3-yl)-N2-(2-(4-(trifluoromethyl)phenoxy)ethyl) oxalamide], the EC50 lay in the range of 200 to 1000 nM.
As to `O=C(NCCC1CCC(F)(F)CC1)C(=O)Nc1c[nH]c2ccccc12` [Compound 179], the EC50 was in the range of 1000 to 5000 nM.
In the case of `Cc1c(NC(=O)C(=O)Nc2c[nH]c3cc(F)c(F)cc23)cccc1C(F)(F)F` [Compound 167, N1-(5,6-difluoro-1H-indol-3-yl)-N2-(2-methyl-3-(trifluoromethyl)phenyl)oxalamide] it was 200 to 1000 nM.
As for `CC(C)(C)OC(=O)N1CCC2(CC1)CC(NC(=O)C(=O)Nc1c[nH]c3cc(F)c(F)cc13)CO2` (stereo not drawn) [Compound 271, tert-butyl 3-{[(5,6-difluoro-1H-indol-3-yl)carbamoyl] formamido}-1-oxa-8-azaspiro[4.5]decane-8-carboxylate], the EC50 is 1000 to 5000 nM.
In the case of `O=C(Nc1ccc2c(c1)oc(=O)n2Cc1ccccc1)C(=O)Nc1c[nH]c2cc(F)c(F)cc12` [Compound 273, N′-(3-benzyl-2-oxo-2,3-dihydro-1,3-benzoxazol-6-yl)-N-(5,6-difluoro-1H-indol-3-yl)ethanediamide] it was 200 to 1000 nM; in that of `O=C(Nc1c[nH]c2cc(F)c(F)cc12)C(=O)NC1CCN(c2cccnc2)C1` (stereo not drawn) [Compound 332], 1000 to 5000 nM.
For `CN1CCOc2cc(NC(=O)C(=O)Nc3c[nH]c4cc(F)c(F)cc34)ccc21` [Compound 266, N-(5,6-difluoro-1H-indol-3-yl)-N′-(4-methyl-3,4-dihydro-2H-1,4-benzoxazin-7-yl)ethanediamide] the value was 200 to 1000 nM; for `N#Cc1ccc2[nH]cc(NC(=O)C(=O)NCc3ccc(C(F)(F)F)c(Cl)c3)c2c1` [Compound 321], 200 to 1000 nM.
In the case of `C#Cc1ccc(NC(=O)C(=O)Nc2c[nH]c3cc(F)c(F)cc23)cc1` [Compound 182] it was 200 to 1000 nM.
`O=C(NCc1ccc(C(F)(F)F)c(Cl)c1)C(=O)Nc1c[nH]c2ccc(Br)cc12` [Compound 133]: the EC50 is 40 to 200 nM.
In the case of `O=C(Nc1c[nH]c2cc(F)c(F)cc12)C(=O)N1CCN(Cc2ccc(C(F)(F)F)cc2)CC1` [Compound 253], the EC50 fell in the range of 200 to 1000 nM.
For `O=C(Nc1c[nH]c2cc(F)c(F)cc12)C(=O)N[C@H]1CCC[C@H](Oc2ccc(C(F)(F)F)cc2)C1` (single isomer, unassigned) [Compound 227] the value was 40 to 200 nM; for `O=C(NC[C@H]1CC12CCCCC2)C(=O)Nc1c[nH]c2cc(F)c(F)cc12` [Compound 177], 40 to 200 nM.
In the case of `O=C(Nc1ccc(C(F)(F)F)c(Cl)c1)C(=O)Nc1c[nH]c2cc(F)c(F)cc12` [Compound 181] it was 200 to 1000 nM.
`O=C(Nc1c[nH]c2cc(F)c(F)cc12)C(=O)NC1CCC2(CCCC2)C1` (stereo not drawn) [Compound 279]: the EC50 fell in the range of 200 to 1000 nM.
As to `O=C(Nc1c[nH]c2cc(F)c(F)cc12)C(=O)NC1CC(Oc2ccc(C(F)(F)F)cc2)C1` (stereo not drawn) [Compound 218], the EC50 fell in the range of 200 to 1000 nM.
In the case of `O=C(NC[C@@H]1CC12CCCCC2)C(=O)Nc1c[nH]c2cc(F)c(F)cc12` [Compound 176] it was 200 to 1000 nM; in that of `O=C(NC[C@H](C(F)F)C1CCCCC1)C(=O)Nc1c[nH]c2cc(F)c(F)cc12` [Compound 136], 40 to 200 nM; in that of `O=C(Nc1c[nH]c2cc(F)c(F)cc12)C(=O)NC1CCN(c2ccc(C(F)(F)F)cn2)C1` (stereo not drawn) [Compound 337], 200 to 1000 nM.
For the compound `O=C(NCc1ccc(Cl)cc1C(F)(F)F)C(=O)Nc1c[nH]c2cc(F)c(F)cc12` [Compound 160, N1-(4-chloro-2-(trifluoromethyl)benzyl)-N2-(5,6-difluoro-1H-indol-3-yl)oxalamide], the EC50 was 200 to 1000 nM.
